Values quoted from earlier work as cited in article PMC5766731 (Clinical Pharmacokinetics, 2017).

Conditions: cited from earlier work

## O=C(O)CNC(=O)c1ncc(-c2cccc(Cl)c2)cc1O [vadadustat]
  pharmacokinetics in CKD patients (stages 3 and 4): not found to be significantly altered
Healthy subjects
  renal CL mechanisms, share of the radioactive dose: approximately 59%
